*1 amine or outer side, *2 acyl side, *3 side chain or, on linkers, in order; H or OH if unused. Where a SMILES comes first, the peptide text is derived from it. Bridges are numbered along the chain shown (N, C = ends). [ ]: non-standard residue; d: D form. The star is where a group is joined. C20 diacid = O=C(O)CCCCCCCCCCCCCCCCCCC(=O)*; γGlu = O=C(O)[C@H](CCC(=O)[*:2])N[*:1]; Hyp = O=C(O)[C@@H]1C[C@@H](O)CN1; NMeI = CC[C@H](C)[C@H](NC)C(=O)O; Aad = N[C@@H](CCCC(=O)O)C(=O)O; Sar = CNCC(=O)O
Assays:
[1] = Assessment of chemical stability (RP-HPLC normalized purity); format: physicochemical; conditions: for Normalized purity after 7 days, 40° C., pH 4: pH 4, 0.2 mg/ml; for Normalized purity after 7 days, 40° C., pH 4 / Normalized purity after 7 days, 40° C., pH 6 / Normalized purity after 7 days, 40° C., pH 7.5 / Normalized purity after 7 days, 40° C., pH 9: Table 1; for Normalized purity after 7 days, 40° C., pH 6: pH 6, 0.2 mg/ml; for Normalized purity after 7 days, 40° C., pH 7.5: pH 7.5, 0.2 mg/ml; for Normalized purity after 7 days, 40° C., pH 9: pH 9, 0.2 mg/ml
Outline: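 Peptides at 0.2 mg/ml in water adjusted to pH 4, 6, 7.5 or 9, incubated at 40° C for 7 days. Main-peak area-% by RP-HPLC (C8 ammonium formate or C18 TFA gradient, UV 220 nm), normalized to T=0 as 100.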

[2] = Assessment of physical stability (Thioflavin T fibrillation); format: physicochemical; set-up: key: FND = fibrillation not detected; FD = fibrillation detected; conditions: 1 mg/ml, 40° C., ThT; for Fibrillation pH 4.0 (Ac): 50 mM acetate buffer pH 4.0, 96 hours; for Fibrillation pH 7.0 (His): 50 mM histidine buffer pH 7.0, 96 hours; for Fibrillation pH 7.0 (Phos.): 50 mM phosphate buffer pH 7.0, 96 hours
Outline: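 1 mg/ml peptide with 40 μM ThT in 50 mM phosphate pH 7.0, 50 mM histidine pH 7.0 or 50 mM acetate pH 4.0, in triplicate. Fluorescence read every 10 min after 300 s agitation over 96 h at 40 °C. Lag-time (h) is the intersection of linear fits to stable and growth phases.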

[3] = Pharmacokinetic (PK) profiling in rats; format: in vivo, rat; set-up: CI/F (apparent clearance values): unit not given here; conditions: Sprague Dawley male rats, single sc 30 nmol/kg; for half-life: rat, plasma, read-out: Plasma terminal elimination half-life t1/2 (converted)
Protocol: Sprague Dawley male rats were given a single subcutaneous (sc) bolus of each peptide to be tested, as specified below. 30 nmol/kg doses of compound were administered. Blood samples were drawn from the tail vein prior to dosing and at 24, 48, 72, 96 and 168 hours after dosing. Blood samples were taken from two rats at each time point, and only 2 blood samples were drawn from each rat, i.e. […] were used for each compound. The rats were euthanized immediately after the last blood sampling by concussion and cervical dislocation.
The dosing vehicle used for each test peptide was a mannitol-containing histidine buffer (pH 7.0). Plasma samples were analyzed after precipitation with ethanol by liquid chromatography mass spectrometry (LC-MS/MS). Mean plasma concentrations were used for calculation of the pharmacokinetic parameters using the non-compartmental approach in Phoenix WinNonlin 6.3.
Plasma terminal elimination half-life (t1/2) was determined as ln(2)/λz, where λz is the magnitude of the slope of the log linear regression of the log concentration versus time profile during the terminal phase. Apparent clearance (CL/F) was determined as dose/AUCinf (sc), where AUCinf is the area under the plasma concentration vs. time curve extrapolated to infinity (AUCinf=AUClast+Clast/λz, where Clast is the last observed plasma concentration).

Compound	Normalized purity after 7 days, 40° C., pH 4 [1]	Normalized purity after 7 days, 40° C., pH 6 [1]	Normalized purity after 7 days, 40° C., pH 7.5 [1]	Normalized purity after 7 days, 40° C., pH 9 [1]	Fibrillation pH 4.0 (Ac) [2]	Fibrillation pH 7.0 (His) [2]	Fibrillation pH 7.0 (Phos.) [2]	CI/F (apparent clearance values) [3]	half-life [3]	Normalized purity pH 4 (Table 5) ([1]; pH 4, repeat of Example 6 for pairs with/without Asn-Asn at 21-22)	Normalized purity pH 6 (Table 5) ([1]; pH 6, repeat of Example 6 for pairs with/without Asn-Asn at 21-22)	Normalized purity pH 7.5 (Table 5) ([1]; pH 7.5, repeat of Example 6 for pairs with/without Asn-Asn at 21-22)	Normalized purity pH 9 (Table 5) ([1]; pH 9, repeat of Example 6 for pairs with/without Asn-Asn at 21-22)
CC[C@H](C)[C@@H](C(=O)N[C@@H](CC(C)C)C(=O)N[C@@H](CO)C(=O)N[C@@H](CO)C(=O)N[C@H](C(=O)N[C@@H](CCC(=O)O)C(=O)N[C@H](C(=O)NCC(=O)N[C@@H](CO)C(=O)N[C@@H](CO)C(=O)N[C@H](C(=O)N1CCC[C@H]1C(N)=O)[C@@H](C)O)C(C)C)[C@@H](C)O)N(C)C(=O)[C@H](C)NC(=O)CN(C)C(=O)[C@H](Cc1ccccc1)NC(=O)[C@H](CO)NC(=O)[C@H](CO)NC(=O)[C@H](CCCNC(=N)N)NC(=O)[C@H](CCC(N)=O)NC(=O)[C@H](CC(C)C)NC(=O)[C@H](Cc1ccccc1)NC(=O)[C@H](Cc1c[nH]cn1)NC(=O)[C@H](C)NC(=O)[C@H](CC(C)C)NC(=O)[C@H](CCCNC(=N)N)NC(=O)[C@H](CCC(=O)O)NC(=O)[C@@H](NC(=O)[C@H](C)NC(=O)[C@@H]1CSSC[C@H](NC(=O)[C@H](CCCNC(=N)N)NC(=O)CC[C@H](NC(=O)CCCCCCCCCCCCCCCCCCC(=O)O)C(=O)O)C(=O)NCC(=O)N[C@@H]([C@@H](C)O)C(=O)N[C@@H](C)C(=O)N[C@@H]([C@@H](C)O)C(=O)N1)[C@@H](C)O [Compound 34, [19CD]-isoGlu-R-C( )-GTAT-C( )-ATERLAHFLQRSSF-Gly(Me)-A-Ile(Me)-LSSTEVGSSTP-NH2] ({C20 diacid-γGlu}-RCGTATCATERLAHFLQRSSF[Sar]A[NMeI]LSSTEVGSSTP-NH2; disulfide 2-7)	A (A = >90%)	B (B = 70-90%)	B (B = 70-90%)	B (B = 70-90%)	FND	FND	FND	0.0148					
CC[C@H](C)[C@@H](C(=O)N[C@@H](CC(C)C)C(=O)N[C@@H](CO)C(=O)N[C@@H](CO)C(=O)N[C@H](C(=O)N[C@@H](CCC(=O)O)C(=O)N[C@H](C(=O)NCC(=O)N[C@@H](CO)C(=O)N[C@@H](CO)C(=O)N[C@H](C(=O)N1CCC[C@H]1C(N)=O)[C@@H](C)O)C(C)C)[C@@H](C)O)N(C)C(=O)[C@H](C)NC(=O)CN(C)C(=O)[C@H](Cc1ccccc1)NC(=O)[C@H](CO)NC(=O)[C@H](CO)NC(=O)[C@H](CCCNC(=N)N)NC(=O)[C@H](CCC(=O)O)NC(=O)[C@H](CC(C)C)NC(=O)[C@H](Cc1ccccc1)NC(=O)[C@H](Cc1c[nH]cn1)NC(=O)[C@H](C)NC(=O)[C@H](CC(C)C)NC(=O)[C@H](CCCNC(=N)N)NC(=O)[C@H](CCC(=O)O)NC(=O)[C@@H](NC(=O)[C@H](C)NC(=O)[C@@H]1CSSC[C@H](NC(=O)[C@H](CCCNC(=N)N)NC(=O)CC[C@H](NC(=O)CCCCCCCCCCCCCCCCCCC(=O)O)C(=O)O)C(=O)NCC(=O)N[C@@H]([C@@H](C)O)C(=O)N[C@@H](C)C(=O)N[C@@H]([C@@H](C)O)C(=O)N1)[C@@H](C)O [Compound 36, [19CD]-isoGlu-R-C( )-GTAT-C( )-ATERLAHFLERSSF-Gly(Me)-A-Ile(Me)-LSSTEVGSSTP-NH2] ({C20 diacid-γGlu}-RCGTATCATERLAHFLERSSF[Sar]A[NMeI]LSSTEVGSSTP-NH2; disulfide 2-7)	A (A = >90%)	A (A = >90%)	B (B = 70-90%)	B (B = 70-90%)	FND	FND	FD	0.0117	25.7 h				
CC[C@H](C)[C@@H](C(=O)N[C@@H](CC(C)C)C(=O)N[C@@H](CO)C(=O)N[C@@H](CO)C(=O)N[C@H](C(=O)N[C@@H](CCC(=O)O)C(=O)N[C@H](C(=O)NCC(=O)N[C@@H](CO)C(=O)N[C@@H](CC(N)=O)C(=O)N[C@H](C(=O)N1C[C@H](O)C[C@H]1C(N)=O)[C@@H](C)O)C(C)C)[C@@H](C)O)N(C)C(=O)[C@H](C)NC(=O)CN(C)C(=O)[C@H](Cc1ccccc1)NC(=O)[C@H](CO)NC(=O)[C@H](CO)NC(=O)[C@H](CCCNC(=N)N)NC(=O)[C@H](CCC(N)=O)NC(=O)[C@H](CC(C)C)NC(=O)[C@H](Cc1ccccc1)NC(=O)[C@H](CC(=O)O)NC(=O)[C@H](C)NC(=O)[C@H](CC(C)C)NC(=O)[C@H](CCCNC(=N)N)NC(=O)[C@H](CCC(N)=O)NC(=O)[C@@H](NC(=O)[C@H](C)NC(=O)[C@@H]1CSSC[C@H](NC(=O)[C@H](CCCNC(=N)N)NC(=O)CC[C@H](NC(=O)CCCCCCCCCCCCCCCCCCC(=O)O)C(=O)O)C(=O)N[C@@H](CC(N)=O)C(=O)N[C@@H]([C@@H](C)O)C(=O)N[C@@H](C)C(=O)N[C@@H]([C@@H](C)O)C(=O)N1)[C@@H](C)O [Compound 49, [19CD]-isoGlu-R-C( )-NTAT-C( )-ATQRLADFLQRSSF-Gly(Me)-A-Ile(Me)-LSSTEVGSNT-Hyp-NH2] ({C20 diacid-γGlu}-RCNTATCATQRLADFLQRSSF[Sar]A[NMeI]LSSTEVGSNT[Hyp]-NH2; disulfide 2-7)	A (A = >90%)	A (A = >90%)	A (A = >90%)	B (B = 70-90%)	FD	FND	FND	0.00406	36.7 h				
CC[C@H](C)[C@@H](C(=O)N[C@@H](CC(C)C)C(=O)N[C@@H](CO)C(=O)N[C@@H](CO)C(=O)N[C@H](C(=O)N[C@@H](CCC(=O)O)C(=O)N[C@H](C(=O)NCC(=O)N[C@@H](CO)C(=O)N[C@@H](CC(N)=O)C(=O)N[C@H](C(=O)N1C[C@H](O)C[C@H]1C(N)=O)[C@@H](C)O)C(C)C)[C@@H](C)O)N(C)C(=O)[C@H](C)NC(=O)CN(C)C(=O)[C@H](Cc1ccccc1)NC(=O)[C@H](CO)NC(=O)[C@H](CO)NC(=O)[C@H](CCCNC(=N)N)NC(=O)[C@H](CCC(N)=O)NC(=O)[C@H](CC(C)C)NC(=O)[C@H](Cc1ccccc1)NC(=O)[C@H](CCCC(=O)O)NC(=O)[C@H](C)NC(=O)[C@H](CC(C)C)NC(=O)[C@H](CCCNC(=N)N)NC(=O)[C@H](CCC(=O)O)NC(=O)[C@@H](NC(=O)[C@H](C)NC(=O)[C@@H]1CSSC[C@H](NC(=O)[C@H](CCCNC(=N)N)NC(=O)CC[C@H](NC(=O)CCCCCCCCCCCCCCCCCCC(=O)O)C(=O)O)C(=O)NCC(=O)N[C@@H]([C@@H](C)O)C(=O)N[C@@H](C)C(=O)N[C@@H]([C@@H](C)O)C(=O)N1)[C@@H](C)O [Compound 55, [19CD]-isoGlu-R-C( )-GTAT-C( )-ATERLA-Aad-FLQRSSF-Gly(Me)-A-Ile(Me)-LSSTEVGSNT-Hyp-NH2] ({C20 diacid-γGlu}-RCGTATCATERLA[Aad]FLQRSSF[Sar]A[NMeI]LSSTEVGSNT[Hyp]-NH2; disulfide 2-7)	A (A = >90%)	A (A = >90%)	A (A = >90%)	B (B = 70-90%)	FND	FND	FND	0.0045	26.2 h	A (A = >90%)	A (A = >90%)	A (A = >90%)	B (B = 70-90%)
